Assay results reported in US20220251044A1, “CRYSTAL FORM OF HYPOXIA-INDUCIBLE FACTOR-PROLYL HYDROXYLASE INHIBITOR” (CRYSTAL PHARMACEUTICAL (SUZHOU) CO., LTD., priority 2019, published 2022).
In brackets after ≈: the same amount, converted by molar mass. Like-named read-outs stand apart in the source and are kept apart here.

Key:
Type in all cases: physicochemical
[1] = Compressibility (tablet hardness, tensile strength); details: 80 mg, compressed at 10 kN
Protocol: ENERPAC manual tablet press was used for compression. 80 mg of Form CSI and WO2014014835 Form A were weighed and added into the dies of a φ6 mm round tooling, compressed at 10 kN, then stored at room temperature for 24 h until complete elastic recovery. Hardness (H) was tested with an intelligent tablet hardness tester. Diameter (D) and thickness (L) were tested with a caliper. Tensile strength of the powder was calculated with the following formula: T=2H/πDL*9.8. Under a certain force, the greater the tensile strength, the better the compressibility.

[2] = Kinetic solubility in SGF, FaSSIF, FeSSIF and water
Source text: The parameters for kinetic solubility tests of the present disclosure are as follows:
When solubility test is used to predict the in vivo performance of a drug, it is critical to simulate in vivo conditions as closely as possible. For oral medication, Simulated Gastric Fluid (SGF), Fasted-State Simulated Intestinal Fluid (FaSSIF), Fed-State Simulated Intestinal Fluid (FeSSIF) can be used to simulate the condition in vivo and predict the effects of feeding, thus solubility in such mediums is closer to that in vivo.
20 mg of Form CSI and 20 mg of WO2014014835 Form A were suspended into 4.0 mL of SGF, 4.0 mL of FaSSIF, 4.0 mL of FeSSIF and 4.0 mL of water to get saturated solutions. After equilibrated for 1 h, 4 h, 8 h and 24 h, the concentrations (μg/mL) of Compound I of the saturated solutions were measured by UPLC.

[3] = Physical stability on grinding (XRPD); details: ground manually for 5 min in a mortar
Protocol: Form CSI and WO2014014835 Form A was ground manually for 5 min in a mortar.

[4] = Intrinsic dissolution (IDR); details: for IDR: slope of data within 5-120 minutes
Protocol: The parameters for intrinsic dissolution tests in the present disclosure are as follows:
Approximately 100 mg of Form CSI or WO2014014835 Form A was added into the cavity of the die, and then compressed at 10 kN and held for 0.5 minute to obtain a tablet having a surface area of 0.5 cm^2. The die with the tablet still embedded was put into a dissolution apparatus to test the intrinsic dissolution. The slope (in μg/min) of the regression line was calculated according to the data within 5-120 minutes. IDR (in μg/min/cm^2) was further calculated according to the slope.

[5] = Hygroscopicity by DVS; details: for Weight gain under 80% RH: DVS, 25° C.
Protocol: Dynamic Vapor Sorption (DVS) was measured via an SMS (Surface Measurement Systems Ltd.) intrinsic DVS instrument. Its control software is DVS-Intrinsic control software. Typical parameters for DVS test are as follows: Temperature: 25° C. Gas and flow rate: N2, 200 mL/min dm/dt: 0.002%/min RH range: 0% RH to 95% RH DVS was applied to test the hygroscopicity of Form CSI and WO2014014835 Form A with about 10 mg of samples. The weight gains at each relative humidity were recorded in a cycle of 0-95%-0 RH. XRPD test was applied before and after DVS. Description and definition of hygroscopicity (general notice 9103 drug hygroscopicity test guidelines in 2015 edition of Chinese Pharmacopoeia, test at 25° C.±1° C., 80% RH. The definition of hygroscopicity in the 9th European Pharmacopoeia 5.11 is similar to the Chinese Pharmacopoeia.).

Tensile strength ([1]; T=2H/πDL*9.8): 0.33 MPa
Hardness ([1]; φ6 mm round tooling, after 24 h): 0.67 kgf
Kinetic solubility (concentration of Compound I in saturated solution) ([2]; FaSSIF, 1 hour): 241.2 µg/mL
solubility kinetic at 4 h ([2]; FaSSIF, thermodynamic from solid, FaSSIF, 4 hours, read-out: Kinetic solubility (concentration of Compound I in saturated solution)): 569 µg/mL (≈ 1620 µM)
solubility kinetic at 8 h ([2]; FaSSIF, thermodynamic from solid, FaSSIF, 8 hours, read-out: Kinetic solubility (concentration of Compound I in saturated solution)): 567 µg/mL (≈ 1610 µM)
solubility kinetic at 24 h ([2]; FaSSIF, thermodynamic from solid, FaSSIF, 24 hours, read-out: Kinetic solubility (concentration of Compound I in saturated solution)): 570 µg/mL (≈ 1620 µM)
solubility kinetic at 1 h ([2]; FeSSIF, thermodynamic from solid, FeSSIF, 1 hour, read-out: Kinetic solubility (concentration of Compound I in saturated solution)): 146 µg/mL (≈ 415 µM)
solubility kinetic at 4 h ([2]; FeSSIF, thermodynamic from solid, FeSSIF, 4 hours, read-out: Kinetic solubility (concentration of Compound I in saturated solution)): 150 µg/mL (≈ 426 µM)
solubility kinetic at 8 h ([2]; FeSSIF, thermodynamic from solid, FeSSIF, 8 hours, read-out: Kinetic solubility (concentration of Compound I in saturated solution)): 161 µg/mL (≈ 456 µM)
solubility kinetic at 24 h ([2]; FeSSIF, thermodynamic from solid, FeSSIF, 24 hours, read-out: Kinetic solubility (concentration of Compound I in saturated solution)): 269 µg/mL (≈ 762 µM)
Kinetic solubility (concentration of Compound I in saturated solution) ([2]; SGF, 1 hour): 3.6 µg/mL
Kinetic solubility (concentration of Compound I in saturated solution) ([2]; SGF, 4 hours): 3.7 µg/mL
Kinetic solubility (concentration of Compound I in saturated solution) ([2]; SGF, 8 hours): 3.7 µg/mL
Kinetic solubility (concentration of Compound I in saturated solution) ([2]; SGF, 24 hours): 3.6 µg/mL
Kinetic solubility (concentration of Compound I in saturated solution) ([2]; water, 1 hour): 4.7 µg/mL
Kinetic solubility (concentration of Compound I in saturated solution) ([2]; water, 4 hours): 7.9 µg/mL
Kinetic solubility (concentration of Compound I in saturated solution) ([2]; water, 8 hours): 8.4 µg/mL
Kinetic solubility (concentration of Compound I in saturated solution) ([2]; water, 24 hours): 10.1 µg/mL
Crystalline form and crystallinity after grinding (XRPD) [3]: decreases after grinding
Crystalline form and crystallinity after grinding (XRPD) ([3]; listed as Form A): decreases after grinding
Cumulative dissolution ([4]; pH4.5 PBS, 5 min, 37° C., 0.5 cm^2 tablet): 19.9 µg
Cumulative dissolution ([4]; pH4.5 PBS, 10 min): 24.1 µg
Cumulative dissolution ([4]; pH4.5 PBS, 15 min): 28.7 µg
Cumulative dissolution ([4]; pH4.5 PBS, 20 min): 34.0 µg
Cumulative dissolution ([4]; pH4.5 PBS, 25 min): 36.6 µg
Cumulative dissolution ([4]; pH4.5 PBS, 30 min): 40.2 µg
Cumulative dissolution ([4]; pH4.5 PBS, 45 min): 49.1 µg
Cumulative dissolution ([4]; pH4.5 PBS, 60 min): 59.4 µg
Cumulative dissolution ([4]; pH4.5 PBS, 90 min): 80.0 µg
Cumulative dissolution ([4]; pH4.5 PBS, 120 min): 98.2 µg
IDR ([4]; pH4.5 PBS): 1.3454 μg/min/cm^2
Cumulative dissolution ([4]; pH6.8 PBS, 5 min, 37° C., 0.5 cm^2 tablet): 439.4 µg
Cumulative dissolution ([4]; pH6.8 PBS, 10 min): 815.5 µg
Cumulative dissolution ([4]; pH6.8 PBS, 15 min): 1158.2 µg
Cumulative dissolution ([4]; pH6.8 PBS, 20 min): 1488.8 µg
Cumulative dissolution ([4]; pH6.8 PBS, 25 min): 1800.6 µg
Cumulative dissolution ([4]; pH6.8 PBS, 30 min): 2110.0 µg
Cumulative dissolution ([4]; pH6.8 PBS, 45 min): 2853.7 µg
Cumulative dissolution ([4]; pH6.8 PBS, 60 min): 3624.8 µg
Cumulative dissolution ([4]; pH6.8 PBS, 90 min): 5068.5 µg
Cumulative dissolution ([4]; pH6.8 PBS, 120 min): 6427.1 µg
IDR ([4]; pH6.8 PBS): 102.8372 μg/min/cm^2
Weight gain under 80% RH [5]: 0.21%
Weight gain under 80% RH ([5]; listed as Form A): 0.21%
Hygroscopicity class ([5]; weight gain under 80% RH): slightly hygroscopic
SMILES: Cc1nc(C(=O)NCC(=O)O)c(O)c2ccc(Oc3ccccc3)cc12 [WO2014014835 Form A, [(4-hydroxy-1-methyl-7-phenoxy-isoquinoline-3-carbonyl)-amino]-acetic acid, reference compound]
